Test results reported in ChEMBL document CHEMBL1146198, “In vitro studies with DQ-113 and comparison fluoroquinolones to determine propensities to select resistance in gram-positive cocci” (2007).
In brackets after ≈: the same amount, converted by molar mass.

tested on: Streptococcus pneumoniae; assay: Effect on 2 ug/ml moxifloxacin-selected penicillin-resistant Streptococcus pneumoniae 218 mutant after five passages assessed as susceptibility by agar dilution method; format: functional

| Structure (SMILES) | MIC [µg/mL] |
| --- | --- |
| COc1c(N2C[C@@H]3CCCN[C@@H]3C2)c(F)cc2c(=O)c(C(=O)O)cn(C3CC3)c12 [MOXIFLOXACIN] | 4 |

tested on: Staphylococcus aureus; assay: Susceptibility of methicillin-sensitive/resistant Staphylococcus aureus single-step mutant by agar dilution method; format: functional

| Structure (SMILES) | MIC [µg/mL] |
| --- | --- |
| COc1c(N2C[C@@H]3CCCN[C@@H]3C2)c(F)cc2c(=O)c(C(=O)O)cn(C3CC3)c12 [MOXIFLOXACIN] | 0.5 (≈ 1.25 µM) |

tested on: Streptococcus pneumoniae; assay: Susceptibility of penicillin-resistant Streptococcus pneumoniae 335 by agar dilution method; format: functional

| Structure (SMILES) | MIC [µg/mL] |
| --- | --- |
| COc1c(N2C[C@@H]3CCCN[C@@H]3C2)c(F)cc2c(=O)c(C(=O)O)cn(C3CC3)c12 [MOXIFLOXACIN] | 0.12 (≈ 0.299 µM) |

tested on: Streptococcus pneumoniae; assay: Effect on 0.06 ug/ml DQ113-selected penicillin-resistant Streptococcus pneumoniae 335 mutant after five passages assessed as susceptibility by agar dilution method; format: functional

| Structure (SMILES) | MIC [µg/mL] |
| --- | --- |
| COc1c(N2C[C@@H]3CCCN[C@@H]3C2)c(F)cc2c(=O)c(C(=O)O)cn(C3CC3)c12 [MOXIFLOXACIN] | 1 (≈ 2.49 µM) |

tested on: Streptococcus pneumoniae; assay: Effect on 0.5 ug/ml […]-selected penicillin-resistant Streptococcus pneumoniae 335 mutant after five passages assessed as susceptibility by agar dilution method; format: functional

| Structure (SMILES) | MIC [µg/mL] |
| --- | --- |
| COc1c(N2C[C@@H]3CCCN[C@@H]3C2)c(F)cc2c(=O)c(C(=O)O)cn(C3CC3)c12 [MOXIFLOXACIN] | 1 |

tested on: Streptococcus pneumoniae; assay: Effect on 1 ug/ml moxifloxacin-selected penicillin-resistant Streptococcus pneumoniae 335 mutant after five passages assessed as susceptibility by agar dilution method; format: functional

| Structure (SMILES) | MIC [µg/mL] |
| --- | --- |
| COc1c(N2C[C@@H]3CCCN[C@@H]3C2)c(F)cc2c(=O)c(C(=O)O)cn(C3CC3)c12 [MOXIFLOXACIN] | 2 |

tested on: Streptococcus pneumoniae; assay: Effect on 0.06 ug/ml DQ113-selected penicillin-resistant Streptococcus pneumoniae 334 mutant after five passages assessed as susceptibility by agar dilution method; format: functional

| Structure (SMILES) | MIC [µg/mL] |
| --- | --- |
| COc1c(N2C[C@@H]3CCCN[C@@H]3C2)c(F)cc2c(=O)c(C(=O)O)cn(C3CC3)c12 [MOXIFLOXACIN] | 2 (≈ 4.98 µM) |

tested on: Streptococcus pneumoniae; assay: Effect on 8 ug/ml ciprofloxacin-selected penicillin-resistant Streptococcus pneumoniae 216 mutant after five passages assessed as susceptibility by agar dilution method; format: functional

| Structure (SMILES) | MIC [µg/mL] |
| --- | --- |
| COc1c(N2C[C@@H]3CCCN[C@@H]3C2)c(F)cc2c(=O)c(C(=O)O)cn(C3CC3)c12 [MOXIFLOXACIN] | 2 |

tested on: Streptococcus pneumoniae; assay: Susceptibility of penicillin-resistant Streptococcus pneumoniae 218 by agar dilution method; format: functional

| Structure (SMILES) | MIC [µg/mL] |
| --- | --- |
| COc1c(N2C[C@@H]3CCCN[C@@H]3C2)c(F)cc2c(=O)c(C(=O)O)cn(C3CC3)c12 [MOXIFLOXACIN] | 0.12 (≈ 0.299 µM) |

tested on: Streptococcus pneumoniae; assay: Effect on 0.06 ug/ml DQ113-selected penicillin-resistant Streptococcus pneumoniae 218 mutant after five passages assessed as susceptibility by agar dilution method; format: functional

| Structure (SMILES) | MIC [µg/mL] |
| --- | --- |
| COc1c(N2C[C@@H]3CCCN[C@@H]3C2)c(F)cc2c(=O)c(C(=O)O)cn(C3CC3)c12 [MOXIFLOXACIN] | 1 (≈ 2.49 µM) |

tested on: Streptococcus pneumoniae; assay: Effect on 0.5 ug/ml sitafloxacin-selected penicillin-resistant Streptococcus pneumoniae 218 mutant after five passages assessed as susceptibility by agar dilution method; format: functional

| Structure (SMILES) | MIC [µg/mL] |
| --- | --- |
| COc1c(N2C[C@@H]3CCCN[C@@H]3C2)c(F)cc2c(=O)c(C(=O)O)cn(C3CC3)c12 [MOXIFLOXACIN] | 1 |

tested on: Streptococcus pneumoniae; assay: Effect on 16 ug/ml levofloxacin-selected penicillin-resistant Streptococcus pneumoniae 218 mutant after five passages assessed as susceptibility by agar dilution method; format: functional

| Structure (SMILES) | MIC [µg/mL] |
| --- | --- |
| COc1c(N2C[C@@H]3CCCN[C@@H]3C2)c(F)cc2c(=O)c(C(=O)O)cn(C3CC3)c12 [MOXIFLOXACIN] | 1 |

tested on: Streptococcus pneumoniae; assay: Effect on 16 ug/ml ciprofloxacin-selected penicillin-resistant Streptococcus pneumoniae 218 mutant after five passages assessed as susceptibility by agar dilution method; format: functional

| Structure (SMILES) | MIC [µg/mL] |
| --- | --- |
| COc1c(N2C[C@@H]3CCCN[C@@H]3C2)c(F)cc2c(=O)c(C(=O)O)cn(C3CC3)c12 [MOXIFLOXACIN] | 4 |

tested on: Enterococcus; assay: Susceptibility of vancomycin-resistant Enterococcus species single-step mutant by agar dilution method; format: functional

| Structure (SMILES) | MIC [µg/mL] |
| --- | --- |
| COc1c(N2C[C@@H]3CCCN[C@@H]3C2)c(F)cc2c(=O)c(C(=O)O)cn(C3CC3)c12 [MOXIFLOXACIN] | 8 (≈ 19.9 µM) |

tested on: Enterococcus; assay: Susceptibility of drug-selected vancomycin-resistant Enterococcus species mutant by agar dilution method; format: functional

| Structure (SMILES) | MIC [µg/mL] |
| --- | --- |
| COc1c(N2C[C@@H]3CCCN[C@@H]3C2)c(F)cc2c(=O)c(C(=O)O)cn(C3CC3)c12 [MOXIFLOXACIN] | 64 (≈ 159 µM) |

tested on: Streptococcus pneumoniae; assay: Effect on 16 ug/ml levofloxacin-selected penicillin-resistant Streptococcus pneumoniae 335 mutant after five passages assessed as susceptibility by agar dilution method; format: functional

| Structure (SMILES) | MIC [µg/mL] |
| --- | --- |
| COc1c(N2C[C@@H]3CCCN[C@@H]3C2)c(F)cc2c(=O)c(C(=O)O)cn(C3CC3)c12 [MOXIFLOXACIN] | 8 |

tested on: Streptococcus pneumoniae; assay: Effect on 16 ug/ml ciprofloxacin-selected penicillin-resistant Streptococcus pneumoniae 335 mutant after five passages assessed as susceptibility by agar dilution method; format: functional

| Structure (SMILES) | MIC [µg/mL] |
| --- | --- |
| COc1c(N2C[C@@H]3CCCN[C@@H]3C2)c(F)cc2c(=O)c(C(=O)O)cn(C3CC3)c12 [MOXIFLOXACIN] | 0.5 |

tested on: Streptococcus pneumoniae; assay: Susceptibility of penicillin-resistant Streptococcus pneumoniae 334 by agar dilution method; format: functional

| Structure (SMILES) | MIC [µg/mL] |
| --- | --- |
| COc1c(N2C[C@@H]3CCCN[C@@H]3C2)c(F)cc2c(=O)c(C(=O)O)cn(C3CC3)c12 [MOXIFLOXACIN] | 0.12 (≈ 0.299 µM) |

tested on: Streptococcus pneumoniae; assay: Effect on 0.5 ug/ml sitafloxacin-selected penicillin-resistant Streptococcus pneumoniae 334 mutant after five passages assessed as susceptibility by agar dilution method; format: functional

| Structure (SMILES) | MIC [µg/mL] |
| --- | --- |
| COc1c(N2C[C@@H]3CCCN[C@@H]3C2)c(F)cc2c(=O)c(C(=O)O)cn(C3CC3)c12 [MOXIFLOXACIN] | 4 |

tested on: Streptococcus pneumoniae; assay: Effect on 1 ug/ml moxifloxacin-selected penicillin-resistant Streptococcus pneumoniae 334 mutant after five passages assessed as susceptibility by agar dilution method; format: functional

| Structure (SMILES) | MIC [µg/mL] |
| --- | --- |
| COc1c(N2C[C@@H]3CCCN[C@@H]3C2)c(F)cc2c(=O)c(C(=O)O)cn(C3CC3)c12 [MOXIFLOXACIN] | 0.5 |

tested on: Streptococcus pneumoniae; assay: Effect on 4 ug/ml levofloxacin-selected penicillin-resistant Streptococcus pneumoniae 334 mutant after five passages assessed as susceptibility by agar dilution method; format: functional

| Structure (SMILES) | MIC [µg/mL] |
| --- | --- |
| COc1c(N2C[C@@H]3CCCN[C@@H]3C2)c(F)cc2c(=O)c(C(=O)O)cn(C3CC3)c12 [MOXIFLOXACIN] | 2 |

tested on: Streptococcus pneumoniae; assay: Effect on 32 ug/ml ciprofloxacin-selected penicillin-resistant Streptococcus pneumoniae 334 mutant after five passages assessed as susceptibility by agar dilution method; format: functional

| Structure (SMILES) | MIC [µg/mL] |
| --- | --- |
| COc1c(N2C[C@@H]3CCCN[C@@H]3C2)c(F)cc2c(=O)c(C(=O)O)cn(C3CC3)c12 [MOXIFLOXACIN] | 1 |

tested on: Streptococcus pneumoniae; assay: Susceptibility of penicillin-resistant Streptococcus pneumoniae 216 by agar dilution method; format: functional

| Structure (SMILES) | MIC [µg/mL] |
| --- | --- |
| COc1c(N2C[C@@H]3CCCN[C@@H]3C2)c(F)cc2c(=O)c(C(=O)O)cn(C3CC3)c12 [MOXIFLOXACIN] | 0.06 (≈ 0.149 µM) |

tested on: Streptococcus pneumoniae; assay: Effect on 0.06 ug/ml DQ113-selected penicillin-resistant Streptococcus pneumoniae 216 mutant after five passages assessed as susceptibility by agar dilution method; format: functional

| Structure (SMILES) | MIC [µg/mL] |
| --- | --- |
| COc1c(N2C[C@@H]3CCCN[C@@H]3C2)c(F)cc2c(=O)c(C(=O)O)cn(C3CC3)c12 [MOXIFLOXACIN] | 2 (≈ 4.98 µM) |

tested on: Streptococcus pneumoniae; assay: (§1) Effect on 0.5 ug/ml sitafloxacin-selected penicillin-resistant Streptococcus pneumoniae 216 mutant after five passages assessed as susceptibility by agar dilution method; format: functional

| Structure (SMILES) | MIC [µg/mL] |
| --- | --- |
| COc1c(N2C[C@@H]3CCCN[C@@H]3C2)c(F)cc2c(=O)c(C(=O)O)cn(C3CC3)c12 [MOXIFLOXACIN] | 2 |

tested on: Streptococcus pneumoniae; assay: Effect on 2 ug/ml moxifloxacin-selected penicillin-resistant Streptococcus pneumoniae 216 mutant after five passages assessed as susceptibility by agar dilution method; format: functional

| Structure (SMILES) | MIC [µg/mL] |
| --- | --- |
| COc1c(N2C[C@@H]3CCCN[C@@H]3C2)c(F)cc2c(=O)c(C(=O)O)cn(C3CC3)c12 [MOXIFLOXACIN] | 8 |

tested on: Streptococcus pneumoniae; assay: (§2) Effect on 4 ug/ml levofloxacin-selected penicillin-resistant Streptococcus pneumoniae 216 mutant after five passages assessed as susceptibility by agar dilution method; format: functional

| Structure (SMILES) | MIC [µg/mL] |
| --- | --- |
| COc1c(N2C[C@@H]3CCCN[C@@H]3C2)c(F)cc2c(=O)c(C(=O)O)cn(C3CC3)c12 [MOXIFLOXACIN] | 0.25 |

tested on: Streptococcus pneumoniae; assay: Effect on 32 ug/ml ciprofloxacin-selected penicillin-resistant Streptococcus pneumoniae 216 mutant after five passages assessed as susceptibility by agar dilution method; format: functional

| Structure (SMILES) | MIC [µg/mL] |
| --- | --- |
| COc1c(N2C[C@@H]3CCCN[C@@H]3C2)c(F)cc2c(=O)c(C(=O)O)cn(C3CC3)c12 [MOXIFLOXACIN] | 0.5 |

tested on: Streptococcus pneumoniae; assay: Susceptibility of penicillin-resistant Streptococcus pneumoniae 217 by agar dilution method; format: functional

| Structure (SMILES) | MIC [µg/mL] |
| --- | --- |
| COc1c(N2C[C@@H]3CCCN[C@@H]3C2)c(F)cc2c(=O)c(C(=O)O)cn(C3CC3)c12 [MOXIFLOXACIN] | 0.25 (≈ 0.623 µM) |

tested on: Streptococcus pneumoniae; assay: Effect on 0.03 ug/ml DQ113-selected penicillin-resistant Streptococcus pneumoniae 216 mutant after five passages assessed as susceptibility by agar dilution method; format: functional

| Structure (SMILES) | MIC [µg/mL] |
| --- | --- |
| COc1c(N2C[C@@H]3CCCN[C@@H]3C2)c(F)cc2c(=O)c(C(=O)O)cn(C3CC3)c12 [MOXIFLOXACIN] | 0.25 (≈ 0.623 µM) |

tested on: Streptococcus pneumoniae; assay: as §1; format: functional

| Structure (SMILES) | MIC [µg/mL] |
| --- | --- |
| COc1c(N2C[C@@H]3CCCN[C@@H]3C2)c(F)cc2c(=O)c(C(=O)O)cn(C3CC3)c12 [MOXIFLOXACIN] | 2 |

tested on: Streptococcus pneumoniae; assay: Effect on 0.5 ug/ml moxifloxacin-selected penicillin-resistant Streptococcus pneumoniae 216 mutant after five passages assessed as susceptibility by agar dilution method; format: functional

| Structure (SMILES) | MIC [µg/mL] |
| --- | --- |
| COc1c(N2C[C@@H]3CCCN[C@@H]3C2)c(F)cc2c(=O)c(C(=O)O)cn(C3CC3)c12 [MOXIFLOXACIN] | 1 |

tested on: Streptococcus pneumoniae; assay: as §2; format: functional

| Structure (SMILES) | MIC [µg/mL] |
| --- | --- |
| COc1c(N2C[C@@H]3CCCN[C@@H]3C2)c(F)cc2c(=O)c(C(=O)O)cn(C3CC3)c12 [MOXIFLOXACIN] | 0.25 |
